From PMC10043937, “Pyranonaphthoquinones and Naphthoquinones from the Stem Bark of Ventilago harmandiana and Their Anti-HIV-1 Activity” (Journal of Natural Products, 2023)

melting point [°C]	Compound
116 to 117	COc1c(C)c2c(c(O)c1OC)C(=O)[C@@H]1[C@@H](C)O[C@@H](C)C[C@H]1C2=O [Compound 3, (1R,3S,4aR,10aS)-7,8-Dimethoxy-9-hydroxy-1,3,6-trimethyl-3,4,4a,10a-tetrahydro-1H-naphtho[2,3-c]pyran-5,10-dione]
146 to 147	COC1=C(OC)C(=O)c2c(cc(C)c(C(C)=O)c2O)C1=O [Compound 6, 7-Acetyl-2,3-dimethoxy-8-hydroxy-6-methylnaphthalene-1,4-dione]
